Data reported in patent US7494997B2, “Amide derivative” (Nippon Shinyaku Co., Ltd., priority 2002, dated 2009).
Like-named read-outs stand apart in the source and are kept apart here.

Assays:
U937 cells = assay: Cell growth inhibitory effect, U937 cells (WST-8, 72 hours); settings: Homo sapiens, U-937, 72 h, read-out: U937 cells (IC50 value: μM)
K562 cells = assay: Cell growth inhibitory effect, K562 cells (WST-8, 72 hours); settings: for IC50: read-out: K562 cells (IC50 value: μM); for Ratio (U937 cells/K562 cells): ratio of IC50 values U937 cells/K562 cells
[1] = BCR-ABL positive K562 cells, 72 hours, cell growth inhibition

Compound | melting point | IC50 (U937 cells) [µM] | IC50 (K562 cells; Homo sapiens, K562, 72 h) [µM] | Ratio (U937 cells/K562 cells) (K562 cells) | IC50 (K562 cells; [1]) [µM]
Cc1ccc(NC(=O)c2ccc(CN3CCN(C)CC3)c(Br)c2)cc1Nc1nccc(-c2cncnc2)n1.Cl | 184 to 186 °C (dec.) | – | – | – | –
Cc1ccc(NC(=O)c2ccc(CN3CCN(C)CC3)c(C(F)(F)F)c2)cc1Nc1nccc(-c2cncc(Br)c2)n1.Cl | 184 to 187 °C | – | – | – | –
CS(=O)(=O)O.Cc1ccc(NC(=O)c2ccc(CN3CCN(C)CC3)c(C(F)(F)F)c2)cc1Nc1nccc(-c2cncnc2)n1 | 171 to 173 °C | – | – | – | –
Cc1ccc(NC(=O)c2ccc(CN3CCN(C)CC3)c(Br)c2)cc1Nc1cncc(-c2cccnc2)c1 (hydrate or solvate) [Example 17, 3-bromo-4-(4-methylpiperazin-1-ylmethyl)-N-{4-methyl-3-[3-(3-pyridyl)pyridin-5-ylamino]phenyl}benzamide] | 139 to 141 °C | – | – | – | –
Cc1ccc(NC(=O)c2ccc(CN3CCN(C)CC3)c(Br)c2)cc1Nc1cncc(-c2cccnc2)n1 (hydrate or solvate) [Example 19, 3-bromo-4-(4-methylpiperazin-1-ylmethyl)-N-{4-methyl-3-[2-(3-pyridyl)pyrazin-6-ylamino]phenyl}benzamide] | 192 to 193 °C | – | – | – | –
Cc1ccc(NC(=O)c2ccc(CN3CCN(C)CC3)c(Br)c2)cc1Nc1nncc(-c2cccnc2)n1 (hydrate or solvate) [Example 20, 3-bromo-4-(4-methylpiperazin-1-ylmethyl)-N-{4-methyl-3-[5-(3-pyridyl)-1,2,4-triazin-3-ylamino]phenyl}benzamide] | 219 to 221 °C | – | – | – | –
Cc1ccc(NC(=O)c2ccc(CN3CCN(C)CC3)c([N+](=O)[O-])c2)cc1Nc1nccc(-c2cccnc2)n1 (hydrate or solvate) [Example 22, 4-(4-methylpiperazin-1-ylmethyl)-3-nitro-N-{4-methyl-3-[4-(3-pyridyl)pyrimidin-2-ylamino]phenyl}benzamide] | 184 to 186 °C | – | – | – | –
CCN1CCN(Cc2ccc(C(=O)Nc3ccc(C)c(Nc4nccc(-c5cccnc5)n4)c3)cc2Br)CC1 (hydrate or solvate) [Example 27, 3-bromo-4-(4-ethylpiperazin-1-ylmethyl)-N-{4-methyl-3-[4-(3-pyridyl)pyrimidin-2-ylamino]phenyl}benzamide] | 202 to 203 °C | – | – | – | –
Cc1ccc(NC(=O)c2ccc(CN3CCN(C)CC3)c(Br)c2)cc1Nc1nccc(-c2cccnc2)n1 [Example 1, 3-bromo-4-(4-methylpiperazin-1-ylmethyl)-N-{4-methyl-3-[4-(3-pyridyl)pyrimidin-2-ylamino]phenyl}benzamide] | 202 to 203 °C (dec.) | 4.8 | 0.0022 | – | –
Cc1ccc(NC(=O)c2ccc(CN3CCN(C)CC3)c(F)c2)cc1Nc1nccc(-c2cccnc2)n1 [Example 4, 3-fluoro-4-(4-methylpiperazin-1-ylmethyl)-N-{4-methyl-3-[4-(3-pyridyl)pyrimidin-2-ylamino]phenyl}benzamide] | 197 to 199 °C (dec.) | 12.4 | 0.033 | – | –
Cc1ccc(NC(=O)c2ccc(CN3CCN(C)CC3)c(C(F)(F)F)c2)cc1Nc1nccc(-c2cccnc2)n1 [Example 5, 4-(4-methylpiperazin-1-ylmethyl)-3-trifluoromethyl-N-{4-methyl-3-[4-(3-pyridyl)pyrimidin-2-ylamino]phenyl}benzamide] | 182 to 183 °C (dec.) | 3.99 | 0.0008 | – | –
Cc1ccc(NC(=O)c2ccc(CN3CCN(C)CC3)c(C(F)(F)F)c2)cc1Nc1nccc(-c2cncnc2)n1 [Example 6, 4-(4-methylpiperazin-1-ylmethyl)-3-trifluoromethyl-N-{4-methyl-3-[4-(5-pyrimidinyl)pyrimidin-2-ylamino]phenyl}benzamide] | 231 to 233 °C (dec.) | 5.39 | 0.0005 | – | –
Cc1ccc(NC(=O)c2ccc(CN3CCN(C)CC3)c(Br)c2)cc1Nc1nccc(-c2ccc(Cl)nc2)n1 [Example 8, 3-bromo-4-(4-methylpiperazin-1-ylmethyl)-N-{3-[4-(6-chloropyridin-3-yl)pyrimidin-2-ylamino]-4-methylphenyl}benzamide] | 219 to 222 °C (dec.) | – | – | – | –
Cc1ccc(NC(=O)c2ccc(CN3CCN(C)CC3)c(Br)c2)cc1Nc1nccc(-c2cccnn2)n1 [Example 12, 3-bromo-4-(4-methylpiperazin-1-ylmethyl)-N-{4-methyl-3-[4-(3-pyridazinyl)pyrimidin-2-ylamino]phenyl}benzamide] | 185 to 187 °C (dec.) | – | – | – | –
Cc1ccc(NC(=O)c2ccc(CN3CCN(C)CC3)c(Br)c2)cc1Nc1cc(-c2cccnc2)ccn1 [Example 14, 3-bromo-4-(4-methylpiperazin-1-ylmethyl)-N-{4-methyl-3-[4-(3-pyridyl)pyridin-2-ylamino]phenyl}benzamide] | 244 to 245 °C (dec.) | > 10 | 0.003 | >3333.3 | –
Cc1ccc(NC(=O)c2ccc(CN3CCN(C)CC3)c(Br)c2)cc1Nc1cc(-c2cncnc2)ccn1 [Example 15, 3-bromo-4-(4-methylpiperazin-1-ylmethyl)-N-{4-methyl-3-[4-(5-pyrimidinyl)pyridin-2-ylamino]phenyl}benzamide] | 244 to 246 °C (dec.) | 9.1 | 0.0048 | 1895.8 | –
Cc1ccc(NC(=O)c2ccc(CN3CCN(C)CC3)c(Br)c2)cc1Nc1cccc(-c2cccnc2)c1 [Example 18, 3-bromo-4-(4-methylpiperazin-1-ylmethyl)-N-{4-methyl-3-[3-(3-pyridyl)phenylamino]phenyl}benzamide] | 174 to 175 °C | – | – | – | –
Cc1ccc(NC(=O)c2ccc(CN3CCN(C)CC3)c(Br)c2)cc1Nc1cncc(-c2cccnc2)n1 [Example 19, 3-bromo-4-(4-methylpiperazin-1-ylmethyl)-N-{4-methyl-3-[2-(3-pyridyl)pyrazin-6-ylamino]phenyl}benzamide] | – | 2.4 | 0.06 | 40.0 | –
Cc1ccc(NC(=O)c2ccc(CN3CCN(C)CC3)c(Br)c2)cc1Nc1nncc(-c2cccnc2)n1 [Example 20, 3-bromo-4-(4-methylpiperazin-1-ylmethyl)-N-{4-methyl-3-[5-(3-pyridyl)-1,2,4-triazin-3-ylamino]phenyl}benzamide] | – | 1.82 | 0.015 | 121.3 | –
Cc1cc(C(=O)Nc2ccc(C)c(Nc3nccc(-c4cccnc4)n3)c2)ccc1CN1CCN(C)CC1 [Example 21, 3-methyl-4-(4-methylpiperazin-1-ylmethyl)-N-{4-methyl-3-[4-(3-pyridyl)pyrimidin-2-ylamino]phenyl}benzamide] | 192 to 193 °C | > 10 | 0.0053 | >1886.8 | –
Cc1ccc(NC(=O)c2ccc(CN3CCN(C)CC3)c([N+](=O)[O-])c2)cc1Nc1nccc(-c2cccnc2)n1 [Example 22, 4-(4-methylpiperazin-1-ylmethyl)-3-nitro-N-{4-methyl-3-[4-(3-pyridyl)pyrimidin-2-ylamino]phenyl}benzamide] | – | 6.56 | 0.0032 | 2050.0 | –
COc1cc(C(=O)Nc2ccc(C)c(Nc3nccc(-c4cccnc4)n3)c2)ccc1CN1CCN(C)CC1 [Example 23, 3-methoxy-4-(4-methylpiperazin-1-ylmethyl)-N-{4-methyl-3-[4-(3-pyridyl)pyrimidin-2-ylamino]phenyl}benzamide] | 171 to 172 °C (dec.) | > 10 | 0.0094 | >1063.8 | –
Cc1ccc(NC(=O)c2cc(Br)c(CN3CCN(C)CC3)c(Br)c2)cc1Nc1nccc(-c2cccnc2)n1 [Example 24, 3,5-dibromo-4-(4-methylpiperazin-1-ylmethyl)-N-{4-methyl-3-[4-(3-pyridyl)pyrimidin-2-ylamino]phenyl}benzamide] | 227 to 229 °C | 7.29 | 0.0015 | 4860.0 | –
Cc1ccc(NC(=O)c2ccc(CN3CCN(C)CC3)c(C(=O)N(C)C)c2)cc1Nc1nccc(-c2cccnc2)n1 [Example 26, 3-(N,N-dimethylcarbamoyl)-4-(4-methylpiperazin-1-ylmethyl)-N-{4-methyl-3-[4-(3-pyridyl)pyrimidin-2-ylamino]phenyl}benzamide] | 210 to 214 °C (dec.) | – | – | – | –
CCN1CCN(Cc2ccc(C(=O)Nc3ccc(C)c(Nc4nccc(-c5cccnc5)n4)c3)cc2Br)CC1 [Example 27, 3-bromo-4-(4-ethylpiperazin-1-ylmethyl)-N-{4-methyl-3-[4-(3-pyridyl)pyrimidin-2-ylamino]phenyl}benzamide] | – | 7.16 | 0.00049 | 14612.2 | –
Cc1ccc(NC(=O)c2ccc(CN3CCCCC3)c(Br)c2)cc1Nc1nccc(-c2cccnc2)n1 [Example 32, 3-bromo-4-(piperidinomethyl)-N-{4-methyl-3-[4-(3-pyridyl)pyrimidin-2-ylamino]phenyl}benzamide] | 158 to 159 °C | – | – | – | –
Cc1ccc(NC(=O)c2ccc(CN3C[C@@H](C)N[C@@H](C)C3)c(Br)c2)cc1Nc1nccc(-c2cccnc2)n1 [Example 34, 3-bromo-4-(cis-3,5-dimethylpiperazin-1-ylmethyl)-N-{4-methyl-3-[4-(3-pyridyl)pyrimidin-2-ylamino]phenyl}benzamide] | 204 to 205 °C | – | – | – | –
Cc1ccc(NC(=O)c2ccc(CN3CCNCC3)c(Br)c2)cc1Nc1nccc(-c2cncnc2)n1 [Example 36, 3-bromo-4-(1-piperazinylmethyl)-N-{4-methyl-3-[4-(5-pyrimidinyl)pyrimidin-2-ylamino]phenyl}benzamide] | – | – | – | – | 0.0041
Cc1ccc(NC(=O)c2ccc(CN3CCNCC3)c(C(F)(F)F)c2)cc1Nc1nccc(-c2cncnc2)n1 [Example 38, 4-(1-piperazinylmethyl)-3-trifluoromethyl-N-{4-methyl-3-[4-(5-pyrimidinyl)pyrimidin-2-ylamino]phenyl}benzamide] | – | – | – | – | 0.00093
